Structures are written as SMILES. Some results are limits rather than exact numbers.

The test concerns the target T1, PLK4 (Homo sapiens, UniProt O00444).
T1 sequence (O00444 1-970): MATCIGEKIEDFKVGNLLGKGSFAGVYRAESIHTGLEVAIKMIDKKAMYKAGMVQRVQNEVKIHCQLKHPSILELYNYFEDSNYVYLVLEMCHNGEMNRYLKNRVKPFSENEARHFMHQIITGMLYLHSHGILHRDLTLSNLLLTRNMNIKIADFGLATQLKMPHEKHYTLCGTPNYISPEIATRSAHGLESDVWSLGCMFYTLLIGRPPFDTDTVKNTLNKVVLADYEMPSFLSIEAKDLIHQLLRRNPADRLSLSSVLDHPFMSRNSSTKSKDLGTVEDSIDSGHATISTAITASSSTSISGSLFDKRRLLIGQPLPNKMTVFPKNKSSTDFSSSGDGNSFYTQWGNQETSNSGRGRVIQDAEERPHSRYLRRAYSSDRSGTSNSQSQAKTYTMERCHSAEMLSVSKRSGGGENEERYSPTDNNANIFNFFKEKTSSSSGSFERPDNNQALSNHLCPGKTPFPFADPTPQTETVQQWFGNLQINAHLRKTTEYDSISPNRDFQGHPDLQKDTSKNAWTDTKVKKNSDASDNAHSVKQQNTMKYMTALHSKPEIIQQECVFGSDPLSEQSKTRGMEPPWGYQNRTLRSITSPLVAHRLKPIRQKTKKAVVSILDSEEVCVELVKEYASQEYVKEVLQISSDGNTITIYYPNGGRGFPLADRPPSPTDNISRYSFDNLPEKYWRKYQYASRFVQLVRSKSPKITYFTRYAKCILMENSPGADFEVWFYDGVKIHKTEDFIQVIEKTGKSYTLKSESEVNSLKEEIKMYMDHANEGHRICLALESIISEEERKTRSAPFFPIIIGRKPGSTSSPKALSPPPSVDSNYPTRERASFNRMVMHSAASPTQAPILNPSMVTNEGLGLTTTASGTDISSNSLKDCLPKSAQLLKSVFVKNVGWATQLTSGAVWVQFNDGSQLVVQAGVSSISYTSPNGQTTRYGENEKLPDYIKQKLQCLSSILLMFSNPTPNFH
Put plainly: Activity (IC50) of the Table 1 compounds as PLK4 inhibitors. Particulars: Table 1, IC50 class. The test is classed as biochemical.
As a reminder, the IC50 is the midpoint of a concentration-inhibition curve. High values mean weaker potency in that assay, low ones greater potency in that assay. As for `COCCN(C)c1nc(Sc2ccc(NC(=O)C3CC3)cc2)nc(Nc2cc(C)[nH]n2)c1C`, the IC50 is below 0.1 µM.

With `COc1c(Nc2cc(C)[nH]n2)nc(Sc2ccc(NC(=O)C3CC3)cc2)nc1N1CCOCC1`, the IC50 is below 0.1 µM. `COc1c(Nc2cc(C)[nH]n2)nc(Sc2ccc(NC(=O)C3CC3)cc2)nc1N1CCNCC1`: the IC50 was below 0.1 µM.

As to `COc1c(Nc2cc(C)[nH]n2)nc(Sc2ccc(S(=O)(=O)Cc3ccccc3)cc2)nc1N1CCN(CCN2CCC(O)CC2)CC1`, the IC50 is below 0.1 µM. The result for `CC(=O)Nc1ccc(Sc2nc(Nc3cc(C)[nH]n3)c(Cl)c(N3CCC(O)CC3)n2)cc1` reads below 0.1 µM; that for `CC(=O)Nc1ccc(Cc2nc(N3CCC(O)CC3)nc(Nc3cc(C)[nH]n3)c2Cl)cc1`, below 0.1 µM; that for `CCN(c1nc(Sc2ccc(NC(C)=O)cc2)nc(Nc2cc(C)[nH]n2)c1C)C(C)C`, below 0.1 µM. For `CC(=O)Nc1ccc(Sc2nc(Nc3cc(C)[nH]n3)c(C)c(N(CCO)C(C)C)n2)cc1`, the IC50 is below 0.1 µM. The result for `CC(=O)Nc1ccc(Sc2nc(Nc3cc(C)[nH]n3)c(C)c(N3CCN(CCN4CCOCC4)CC3)n2)cc1` reads below 0.1 µM; that for `CCOc1c(Nc2cc(C)[nH]n2)nc(Sc2ccc(NC(C)=O)cc2)nc1N1CCC(O)CC1`, below 0.1 µM. With `Cc1ccc(Sc2nc(Nc3cc(C)[nH]n3)c(C)c(N(C)C(C)C)n2)cc1`, the IC50 is below 0.1 µM. Molecule `COCC(=O)N1CCN(c2nc(SC)nc(Nc3cc(C)[nH]n3)c2C)CC1` gave a half-maximal inhibitory concentration (IC50) below 0.1 µM. The result for `Cc1cc(Nc2nc(Sc3ccc(NC(=O)C4CC4)cc3)nc(N3CCC(O)CC3)c2C)n[nH]1` reads below 0.1 µM. In the case of `COc1c(Nc2cc(C)[nH]n2)nc(Sc2ccc(CC(=O)C3CC3)cc2)nc1N1CCC(O)CC1` it was below 0.1 µM; in that of `CC(=O)Nc1ccc(Sc2nc(Nc3cc(C)[nH]n3)c(C)c(N3C4CCC3CC(O)C4)n2)cc1` (stereo not shown), below 0.1 µM; in that of `COc1c(Nc2cc(C)[nH]n2)nc(Sc2ccc(NC(C)=O)cc2)nc1N1C2CCC1CC(O)C2` (stereo not shown), below 0.1 µM. The result for `COc1c(Nc2cc(C)[nH]n2)nc(Sc2ccc(S(=O)(=O)Cc3ccccc3)cc2)nc1N1CCO[C@H](C)C1` reads below 0.1 µM; that for `COc1c(Nc2cc(C)[nH]n2)nc(Sc2ccc(S(=O)(=O)Cc3ccccc3)cc2)nc1N1CCN(C2CCN(Cc3ccccc3)CC2)CC1`, below 0.1 µM. `COc1c(Nc2cc(C)[nH]n2)nc(Sc2ccc(S(=O)(=O)Cc3ccccc3)cc2)nc1N1CCO[C@@H](C)C1` gave a half-maximal inhibitory concentration (IC50) below 0.1 µM. The result for `COc1c(Nc2cc(C)[nH]n2)nc(Sc2ccc(S(=O)(=O)Cc3ccccc3)cc2)nc1N1CC2CCC(C1)O2` reads below 0.1 µM; that for `COc1cccc(CS(=O)(=O)c2ccc(Sc3nc(Nc4cc(C)[nH]n4)c(OC)c(N4CCN(CCN(C)Cc5ccccc5)CC4)n3)cc2)c1`, below 0.1 µM. In the case of `COc1c(Nc2cc(C)[nH]n2)nc(Sc2ccc(S(=O)(=O)Cc3ccccc3C)cc2)nc1N1CCN(CCN(C)C)CC1` it was below 0.1 µM; in that of `COc1c(Nc2cc(C)[nH]n2)nc(Sc2ccc(S(=O)(=O)Cc3ccccc3)cc2)nc1N1CCOC[C@H]1C`, below 0.1 µM. `COc1c(Nc2cc(C)[nH]n2)nc(Sc2ccc(S(=O)(=O)Cc3ccccc3)cc2)nc1N1CCOC[C@@H]1C` displayed an IC50 below 0.1 µM.

Consider `COc1c(Nc2cc(C)[nH]n2)nc(Sc2ccc(S(=O)(=O)Cc3cccc(F)c3)cc2)nc1N1CCN(CCN(C)C)CC1`, for which the concentration for half-maximal inhibition (IC50) was below 0.1 µM. In the case of `COc1c(Nc2cc(C)[nH]n2)nc(Sc2ccc(S(=O)(=O)Cc3cccc([N+](=O)[O-])c3F)cc2)nc1N1CCN(CCN(C)C)CC1` it was below 0.1 µM; in that of `COC(=O)c1cccc(CS(=O)(=O)c2ccc(Sc3nc(Nc4cc(C)[nH]n4)c(OC)c(N4CCN(CCN(C)C)CC4)n3)cc2)c1`, below 0.1 µM; in that of `COc1c(Nc2cc(C)[nH]n2)nc(Sc2ccc(S(=O)(=O)Cc3cccc(C(N)=O)c3)cc2)nc1N1CCN(CCN(C)C)CC1`, below 0.1 µM.

Consider `COc1c(Nc2cc(C)[nH]n2)nc(Sc2ccc(S(=O)(=O)Cc3ccccc3)cc2)nc1N1CCN(CCN2CCC2)CC1`, for which the IC50 was below 0.1 µM. The result for `COc1c(Nc2cc(C)[nH]n2)nc(Sc2ccc(S(=O)(=O)Cc3ccccc3NC(C)=O)cc2)nc1N1CCN(CCN(C)C)CC1` reads below 0.1 µM; that for `COc1c(Nc2cc(C)[nH]n2)nc(Sc2ccc(S(=O)(=O)Cc3ccccc3C(F)(F)F)cc2)nc1N1CCN(CCN(C)C)CC1`, below 0.1 µM.

On to `COc1c(Nc2cc(C)[nH]n2)nc(Sc2ccc(S(=O)(=O)Cc3ccccc3N(C)C)cc2)nc1N1CCN(CCN(C)C)CC1`, for which the half-inhibitory concentration (IC50) was below 0.1 µM. The result for `COc1c(Nc2cc(C)[nH]n2)nc(Sc2ccc(S(=O)(=O)Cc3ccccc3-c3ccccc3)cc2)nc1N1CCN(CCN(C)C)CC1` reads below 0.1 µM; that for `COc1c(Nc2cc(C)[nH]n2)nc(Sc2ccc(S(=O)(=O)Cc3ccccc3C#N)cc2)nc1N1CCN(CCN(C)C)CC1`, below 0.1 µM. `COc1c(Nc2cc(C)[nH]n2)nc(Sc2ccc(S(=O)(=O)Cc3cccc(C(=O)N(C)C)c3)cc2)nc1N1CCN(CCN(C)C)CC1` had a half-maximal inhibitory concentration (IC50) below 0.1 µM. `COc1c(Nc2cc(C)[nH]n2)nc(Sc2ccc(S(=O)(=O)Cc3ccccc3C(N)=O)cc2)nc1N1CCN(CCN(C)C)CC1` came in with an IC50 below 0.1 µM. With `COc1c(Nc2cc(C)[nH]n2)nc(Sc2ccc(S(=O)(=O)Cc3ccccc3)cc2)nc1N1CCC(CCN2C3CCCC2CC3)CC1`, the concentration for half-maximal inhibition (IC50) was below 0.1 µM. With `COc1c(Nc2cc(C)[nH]n2)nc(Sc2ccc(S(=O)(=O)Cc3cccc([N+](=O)[O-])c3)cc2)nc1N1CCOC[C@H]1C`, the IC50 is below 0.1 µM.

As to `COc1c(Nc2cc(C)[nH]n2)nc(Sc2ccc(S(=O)(=O)Cc3ccccc3)cc2)nc1N1CCN(C2CCNCC2)CC1`, the IC50 is below 0.1 µM.

As to `COc1c(Nc2cc(C)[nH]n2)nc(Sc2ccc(S(=O)(=O)Cc3ccccc3)cc2Cl)nc1N1CCN(CCN(C)C)CC1`, the half-inhibitory concentration (IC50) was below 0.1 µM.

Turning to `COc1c(Nc2cc(C)[nH]n2)nc(Sc2ccc(S(=O)(=O)Cc3cccc([N+](=O)[O-])c3)cc2)nc1N1CCO[C@H](C)C1`, the IC50 is below 0.1 µM.

In turn, `COc1c(Nc2cc(C)[nH]n2)nc(Sc2ccc(S(=O)(=O)Cc3cccc([N+](=O)[O-])c3)cc2)nc1N1CCO[C@@H](C)C1` registered an IC50 below 0.1 µM. In turn, `COc1c(Nc2cc(C)[nH]n2)nc(Sc2ccc(S(=O)(=O)Cc3cccc(NC(C)=O)c3)cc2)nc1N1CCN(CCN(C)C)CC1` came in with an IC50 below 0.1 µM.

`COc1c(Nc2cc(C)[nH]n2)nc(Sc2ccc(S(=O)(=O)Cc3cccc(N(C)C)c3)cc2)nc1N1CCN(CCN(C)C)CC1` returned an IC50 below 0.1 µM. In the case of `COC(=O)c1ccccc1CS(=O)(=O)c1ccc(Sc2nc(Nc3cc(C)[nH]n3)c(OC)c(N3CCN(CCN(C)C)CC3)n2)cc1` it was below 0.1 µM; in that of `COc1c(Nc2cc(C)[nH]n2)nc(Sc2ccc(S(=O)(=O)Cc3ccccc3C(=O)N(C)C)cc2)nc1N1CCN(CCN(C)C)CC1`, below 0.1 µM; in that of `COc1c(Nc2cc(C)[nH]n2)nc(Sc2ccc(S(=O)(=O)Cc3cccc(C(=O)O)c3)cc2)nc1N1CCN(CCN(C)C)CC1`, below 0.1 µM.

`COc1c(Nc2cc(C)[nH]n2)nc(Sc2ccc(S(=O)(=O)Cc3ccccc3C(=O)O)cc2)nc1N1CCN(CCN(C)C)CC1`: the half-inhibitory concentration (IC50) was below 0.1 µM. The result for `COc1ccc([N+](=O)[O-])cc1CS(=O)(=O)c1ccc(Sc2nc(Nc3cc(C)[nH]n3)c(OC)c(N3CCN(CCN(C)C)CC3)n2)cc1` reads below 0.1 µM; that for `COc1c(CS(=O)(=O)c2ccc(Sc3nc(Nc4cc(C)[nH]n4)c(OC)c(N4CCN(CCN(C)C)CC4)n3)cc2)cccc1[N+](=O)[O-]`, below 0.1 µM. In turn, `COc1c(Nc2cc(C)[nH]n2)nc(Sc2ccc(S(=O)(=O)Cc3cc([N+](=O)[O-])ccc3F)cc2)nc1N1CCN(CCN(C)C)CC1` showed an IC50 below 0.1 µM. Take `COc1c(Nc2cc(C)[nH]n2)nc(Sc2ccc(S(=O)(=O)Cc3cccc([N+](=O)[O-])c3)cc2F)nc1N1CCN(CCN(C)C)CC1`: the half-maximal inhibitory concentration (IC50) was below 0.1 µM. The result for `COc1c(Nc2cc(C)[nH]n2)nc(Sc2ccc(S(=O)(=O)Cc3cccc([N+](=O)[O-])c3F)cc2)nc1N1CCCCC1` reads below 0.1 µM; that for `COc1c(Nc2cc(C)[nH]n2)nc(Sc2ccc(S(=O)(=O)Cc3cc(F)cc([N+](=O)[O-])c3)cc2)nc1N1CCN(CCN(C)C)CC1`, below 0.1 µM; that for `COc1c(Nc2cc(C)[nH]n2)nc(Sc2ccc(S(=O)(=O)Cc3cccc([N+](=O)[O-])c3Cl)cc2)nc1N1CCN(CCN(C)C)CC1`, below 0.1 µM. As for `COc1c(Nc2cc(C)[nH]n2)nc(Sc2ccc(S(=O)(=O)Cc3cccc([N+](=O)[O-])c3F)cc2F)nc1N1CCN(CCN(C)C)CC1`, the concentration for half-maximal inhibition (IC50) was below 0.1 µM. The result for `COc1c(Nc2cc(C)[nH]n2)nc(Sc2ccc(S(=O)(=O)Cc3cccc([N+](=O)[O-])c3)cc2F)nc1N1CCOCC1` reads below 0.1 µM; that for `COc1c(Nc2cc(C)[nH]n2)nc(Sc2ccc(S(=O)(=O)Cc3cccc([N+](=O)[O-])c3)cc2F)nc1N1CCOC[C@@H]1C`, below 0.1 µM.

These data come from patent US11612604B2, “Methods of treating cancer with PLK4 inhibitors” (LUDWIG INSTITUTE FOR CANCER RESEARCH LTD, priority 2017, dated 2023).
